Measurements published in ChEMBL document CHEMBL1909046, “DrugMatrix in vitro pharmacology data”.
*1 amine or outer side, *2 acyl side, *3 side chain or, on linkers, in order; H or OH if unused. Where a SMILES comes first, the peptide text is derived from it. Bridges are numbered along the chain shown (N, C = ends). Roman numbers before positions name the chains, in order. [ ]: non-standard residue; d: D form. Actinocin(1to9) = Cc1c2oc3c(C)ccc(C(=O)[*:2])c3nc-2c(C(=O)[*:1])c(N)c1=O; NMeV = CN[C@H](C(=O)O)C(C)C; Sar = CNCC(=O)O

How the values were obtained:
[1] = target: T1, Type-2 angiotensin II receptor (Homo sapiens, UniProt P50052); type: cell-based; conditions: cho-k1; note: in other assays of this panel Not Active means under 50% inhibition at 10 µM
T1 sequence (P50052 whole entry): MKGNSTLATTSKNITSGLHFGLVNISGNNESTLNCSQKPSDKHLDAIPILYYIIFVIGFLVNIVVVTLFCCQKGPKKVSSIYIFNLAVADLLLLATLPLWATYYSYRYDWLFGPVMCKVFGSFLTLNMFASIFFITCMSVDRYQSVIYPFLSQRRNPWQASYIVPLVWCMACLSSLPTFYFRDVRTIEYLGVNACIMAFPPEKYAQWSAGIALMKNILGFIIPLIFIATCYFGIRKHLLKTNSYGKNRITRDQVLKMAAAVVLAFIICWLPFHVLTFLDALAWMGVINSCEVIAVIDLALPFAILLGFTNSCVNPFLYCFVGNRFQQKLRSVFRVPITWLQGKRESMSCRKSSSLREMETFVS

[2] = target: Nitric oxide synthase 1 (Rattus norvegicus, UniProt P29476); type: tissue-based, Cerebellum; note: in other assays of this panel Not Active means under 50% inhibition at 10 µM
Nitric oxide synthase 1, sequence (P29476 whole entry): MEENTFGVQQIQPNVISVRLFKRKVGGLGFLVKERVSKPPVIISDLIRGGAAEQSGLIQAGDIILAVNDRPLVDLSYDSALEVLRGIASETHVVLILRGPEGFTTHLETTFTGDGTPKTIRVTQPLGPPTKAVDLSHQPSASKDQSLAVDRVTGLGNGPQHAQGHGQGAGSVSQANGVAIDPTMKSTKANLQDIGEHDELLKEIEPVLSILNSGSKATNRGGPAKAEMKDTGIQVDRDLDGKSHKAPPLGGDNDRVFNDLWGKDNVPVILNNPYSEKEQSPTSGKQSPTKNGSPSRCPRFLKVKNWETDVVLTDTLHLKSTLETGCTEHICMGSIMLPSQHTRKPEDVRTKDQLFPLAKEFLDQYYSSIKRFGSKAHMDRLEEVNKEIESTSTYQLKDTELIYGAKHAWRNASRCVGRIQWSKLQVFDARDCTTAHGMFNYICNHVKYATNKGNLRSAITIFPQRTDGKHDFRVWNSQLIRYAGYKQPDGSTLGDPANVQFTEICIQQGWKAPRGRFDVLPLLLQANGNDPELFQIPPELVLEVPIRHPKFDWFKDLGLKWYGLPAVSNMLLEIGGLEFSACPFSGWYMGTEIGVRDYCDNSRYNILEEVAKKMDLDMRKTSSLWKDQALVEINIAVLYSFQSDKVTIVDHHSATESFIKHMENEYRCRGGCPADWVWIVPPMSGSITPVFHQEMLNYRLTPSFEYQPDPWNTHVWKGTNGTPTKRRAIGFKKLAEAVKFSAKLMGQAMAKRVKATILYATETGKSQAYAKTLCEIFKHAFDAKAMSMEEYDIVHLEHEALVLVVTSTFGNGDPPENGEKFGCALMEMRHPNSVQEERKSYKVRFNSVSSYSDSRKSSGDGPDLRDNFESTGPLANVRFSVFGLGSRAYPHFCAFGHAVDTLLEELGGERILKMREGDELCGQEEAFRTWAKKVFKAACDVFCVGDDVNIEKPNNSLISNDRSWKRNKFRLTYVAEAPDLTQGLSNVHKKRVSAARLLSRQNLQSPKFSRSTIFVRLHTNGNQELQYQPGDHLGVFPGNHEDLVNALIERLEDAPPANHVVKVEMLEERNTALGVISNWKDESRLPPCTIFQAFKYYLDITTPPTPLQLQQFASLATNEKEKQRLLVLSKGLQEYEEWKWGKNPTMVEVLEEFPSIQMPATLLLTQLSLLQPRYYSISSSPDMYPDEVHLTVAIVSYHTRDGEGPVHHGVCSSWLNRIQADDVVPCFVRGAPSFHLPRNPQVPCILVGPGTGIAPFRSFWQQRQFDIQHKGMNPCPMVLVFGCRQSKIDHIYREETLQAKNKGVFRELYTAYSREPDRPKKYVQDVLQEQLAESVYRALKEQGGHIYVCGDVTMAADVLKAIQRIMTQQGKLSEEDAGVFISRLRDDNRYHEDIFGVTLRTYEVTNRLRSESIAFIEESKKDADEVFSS

[3] = target: Kappa-type opioid receptor (Homo sapiens, UniProt P41145); assay: DRUGMATRIX: Opiate kappa (OP2, KOP) radioligand binding (ligand: [3H] Diprenorphine); type: cell membranes, HEK293, Membrane; conditions: hek293; Not Active = under 50% inhibition at 10 µM
Kappa-type opioid receptor, sequence (P41145 whole entry): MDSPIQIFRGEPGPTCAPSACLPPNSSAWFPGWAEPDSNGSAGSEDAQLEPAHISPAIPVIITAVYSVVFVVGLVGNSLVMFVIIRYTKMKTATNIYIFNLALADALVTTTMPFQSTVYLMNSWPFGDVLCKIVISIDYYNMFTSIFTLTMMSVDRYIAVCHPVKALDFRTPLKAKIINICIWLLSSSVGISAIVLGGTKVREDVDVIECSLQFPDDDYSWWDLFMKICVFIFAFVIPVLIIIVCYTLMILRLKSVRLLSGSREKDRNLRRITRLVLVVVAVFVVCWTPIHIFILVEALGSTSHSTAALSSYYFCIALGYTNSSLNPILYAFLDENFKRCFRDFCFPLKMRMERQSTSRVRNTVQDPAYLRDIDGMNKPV

[4] = DRUGMATRIX: Phorbol Ester radioligand binding (ligand: [3H] PDBu); type: cell membranes, Mus musculus, ICR, Brain, Membrane; conditions: Not Active = under 50% inhibition at 10 µM
[5] = DRUGMATRIX: Phosphodiesterase PDE4 enzyme inhibition (substrate: [3H]cAMP + cAMP); conditions: u-937, Not Active = under 50% inhibition at 10 µM
[6] = target: Mitogen-activated protein kinase 1 (Homo sapiens, UniProt P28482); assay: DRUGMATRIX: Protein Serine/Threonine Kinase, ERK2 enzyme inhibition (substrate: Myelin Basic Protein); parameters: species or system Escherichia coli; conditions: Not Active = under 50% inhibition at 10 µM
Mitogen-activated protein kinase 1, sequence (P28482 whole entry): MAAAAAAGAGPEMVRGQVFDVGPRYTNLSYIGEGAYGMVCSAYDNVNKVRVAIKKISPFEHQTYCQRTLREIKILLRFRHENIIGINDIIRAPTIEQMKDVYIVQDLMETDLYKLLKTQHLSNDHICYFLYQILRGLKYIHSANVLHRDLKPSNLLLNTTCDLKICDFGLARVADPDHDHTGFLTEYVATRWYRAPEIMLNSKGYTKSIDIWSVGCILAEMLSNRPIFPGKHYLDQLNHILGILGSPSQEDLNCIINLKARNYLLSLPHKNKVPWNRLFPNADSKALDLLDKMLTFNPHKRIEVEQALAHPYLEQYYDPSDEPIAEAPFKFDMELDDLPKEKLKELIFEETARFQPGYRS

[7] = target: Receptor tyrosine-protein kinase erbB-2 (Homo sapiens, UniProt P04626); assay: biochemical; type: cell-based, Insect cells; conditions: insect cells;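 note: inhibition of HER2 kinase enzyme activity, measured with Poly(Glu:Tyr) as the phosphorylation substrate; in other assays of this panel Not Active means under 50% inhibition at 10 µM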
Receptor tyrosine-protein kinase erbB-2, sequence (P04626 whole entry): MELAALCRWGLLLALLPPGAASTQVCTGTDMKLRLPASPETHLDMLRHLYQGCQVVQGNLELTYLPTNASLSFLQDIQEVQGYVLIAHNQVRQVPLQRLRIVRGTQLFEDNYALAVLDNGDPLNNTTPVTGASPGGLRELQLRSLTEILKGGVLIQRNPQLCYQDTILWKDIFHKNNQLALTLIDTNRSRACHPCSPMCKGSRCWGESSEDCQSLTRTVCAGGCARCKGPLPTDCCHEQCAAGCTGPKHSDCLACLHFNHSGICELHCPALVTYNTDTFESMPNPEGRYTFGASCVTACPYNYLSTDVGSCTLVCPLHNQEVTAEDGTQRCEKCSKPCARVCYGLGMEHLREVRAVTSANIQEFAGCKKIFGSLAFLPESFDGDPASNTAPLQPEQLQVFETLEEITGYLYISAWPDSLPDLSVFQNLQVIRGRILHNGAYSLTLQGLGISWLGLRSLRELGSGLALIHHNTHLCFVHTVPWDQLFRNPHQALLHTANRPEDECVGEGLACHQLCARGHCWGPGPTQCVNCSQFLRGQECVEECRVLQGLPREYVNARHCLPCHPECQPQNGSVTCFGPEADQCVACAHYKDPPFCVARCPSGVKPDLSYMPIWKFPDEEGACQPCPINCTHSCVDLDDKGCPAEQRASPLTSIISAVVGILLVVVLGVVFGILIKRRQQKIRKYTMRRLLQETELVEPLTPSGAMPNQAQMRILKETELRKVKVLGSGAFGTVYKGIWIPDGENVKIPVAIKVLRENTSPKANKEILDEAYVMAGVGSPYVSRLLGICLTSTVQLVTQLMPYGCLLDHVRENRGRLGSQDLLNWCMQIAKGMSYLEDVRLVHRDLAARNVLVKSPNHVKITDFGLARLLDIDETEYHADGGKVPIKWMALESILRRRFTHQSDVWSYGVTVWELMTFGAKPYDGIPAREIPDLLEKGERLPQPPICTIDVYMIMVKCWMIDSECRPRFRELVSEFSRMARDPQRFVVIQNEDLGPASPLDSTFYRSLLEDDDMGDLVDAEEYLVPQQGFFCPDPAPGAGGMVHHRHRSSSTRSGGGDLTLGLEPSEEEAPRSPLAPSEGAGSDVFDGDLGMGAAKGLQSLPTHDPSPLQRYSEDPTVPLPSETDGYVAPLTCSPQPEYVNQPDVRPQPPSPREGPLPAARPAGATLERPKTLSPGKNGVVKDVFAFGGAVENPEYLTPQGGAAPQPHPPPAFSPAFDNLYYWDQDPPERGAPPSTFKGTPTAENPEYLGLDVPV

[8] = target: T2, Cytochrome P450 2A6 (Homo sapiens, UniProt P11509); conditions: bti-tn-5b1-4; note: in other assays of this panel Not Active means under 50% inhibition at 10 µM
T2 sequence (P11509 whole entry): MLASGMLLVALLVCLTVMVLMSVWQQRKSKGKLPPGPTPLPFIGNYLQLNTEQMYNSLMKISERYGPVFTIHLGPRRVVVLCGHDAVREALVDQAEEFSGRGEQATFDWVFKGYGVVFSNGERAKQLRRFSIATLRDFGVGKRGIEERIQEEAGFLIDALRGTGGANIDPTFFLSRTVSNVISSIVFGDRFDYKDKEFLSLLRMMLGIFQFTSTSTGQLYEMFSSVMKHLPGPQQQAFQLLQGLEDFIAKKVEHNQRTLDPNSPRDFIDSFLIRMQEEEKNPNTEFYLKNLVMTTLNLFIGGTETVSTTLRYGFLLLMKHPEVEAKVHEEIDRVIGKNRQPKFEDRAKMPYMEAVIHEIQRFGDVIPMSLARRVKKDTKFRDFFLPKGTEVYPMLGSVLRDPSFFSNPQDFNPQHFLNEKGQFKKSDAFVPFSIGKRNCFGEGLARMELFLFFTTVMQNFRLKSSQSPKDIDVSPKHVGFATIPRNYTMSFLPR

SMILES	IC50 [1]	IC50 [2]	IC50 [3]	IC50 [4]	Ki [4]	IC50 ([5]; read-out: IC50) [µM]	IC50 [6]	IC50 [7]	IC50 [8]	Ki [8]	IC50 [5]	Ki [5]	IC50 ([6]; read-out: IC50) [µM]
Cc1ccc(-c2cc(C(F)(F)F)nn2-c2ccc(S(N)(=O)=O)cc2)cc1 [CELECOXIB]	Not Active	Not Active	Not Active	Not Active	Not Active	9.26	Not Active	Not Active	Not Active	Not Active	–	–	–
CCCCc1nc(Cl)c(CO)n1Cc1ccc(-c2ccccc2-c2nnn[nH]2)cc1 [LOSARTAN]	Not Active	Not Active	Not Active	Not Active	Not Active	–	Not Active	Not Active	Not Active	Not Active	Not Active	Not Active	–
CC(NC(C)(C)C)C(=O)c1cccc(Cl)c1 (stereo not given) [BUPROPION]	Not Active	Not Active	Not Active	Not Active	Not Active	–	Not Active	Not Active	Not Active	Not Active	Not Active	Not Active	–
COc1cc2c3cc1Oc1cc(ccc1O)C[C@@H]1c4c(cc(OC)c(O)c4Oc4ccc(cc4)C[C@@H]3N(C)CC2)CC[N+]1(C)C.[Cl-]	Not Active	Not Active	Not Active	Not Active	Not Active	–	Not Active	Not Active	Not Active	Not Active	Not Active	Not Active	–
CCC(C)n1ncn(-c2ccc(N3CCN(c4ccc(OCC5COC(Cn6cncn6)(c6ccc(Cl)cc6Cl)O5)cc4)CC3)cc2)c1=O (stereo not given) [ITRACONAZOLE]	Not Active	Not Active	Not Active	Not Active	Not Active	–	Not Active	Not Active	Not Active	Not Active	Not Active	Not Active	–
C[C@H]1O[C@@H](O[C@H]2[C@@H](O)C[C@H](O[C@H]3[C@@H](O)C[C@H](O[C@H]4CC[C@@]5(C)[C@H](CC[C@@H]6[C@@H]5C[C@@H](O)[C@]5(C)[C@@H](C7=CC(=O)OC7)CC[C@]65O)C4)O[C@@H]3C)O[C@@H]2C)C[C@H](O)[C@@H]1O [DIGOXIN]	Not Active	Not Active	Not Active	Not Active	Not Active	–	Not Active	Not Active	Not Active	Not Active	Not Active	Not Active	–
Cc1c2oc3c(C)ccc(C(=O)N[C@@H]4C(=O)N[C@H](C(C)C)C(=O)N5CCC[C@H]5C(=O)N(C)CC(=O)N(C)[C@@H](C(C)C)C(=O)O[C@@H]4C)c3nc-2c(C(=O)N[C@@H]2C(=O)N[C@H](C(C)C)C(=O)N3CCC[C@H]3C(=O)N(C)CC(=O)N(C)[C@@H](C(C)C)C(=O)O[C@@H]2C)c(N)c1=O [DACTINOMYCIN] (I: T[dV]P[Sar][NMeV] / II: T[dV]P[Sar][NMeV]; ester I:1-I:C, II:1-II:C; linker I:N-II:N via Actinocin(1to9))	Not Active	Not Active	Not Active	Not Active	Not Active	–	Not Active	Not Active	Not Active	Not Active	Not Active	Not Active	–
C=C(C)C1(O)OC(=O)C=C1OC (stereo not given) [PENICILLIC ACID]	Not Active	Not Active	Not Active	Not Active	Not Active	–	Not Active	Not Active	Not Active	Not Active	Not Active	Not Active	–
CN(Cc1ccc(C(C)(C)C)cc1)Cc1cccc2ccccc12 [BUTENAFINE]	Not Active	Not Active	Not Active	Not Active	Not Active	–	Not Active	Not Active	Not Active	Not Active	Not Active	Not Active	–
NC(=O)N1c2ccccc2CCc2ccccc21	Not Active	Not Active	Not Active	Not Active	Not Active	–	Not Active	Not Active	Not Active	Not Active	Not Active	Not Active	–
Cc1onc(-c2ccccc2Cl)c1C(=O)N[C@@H]1C(=O)N2[C@@H]1SC(C)(C)[C@@H]2C(=O)O [CLOXACILLIN]	Not Active	Not Active	Not Active	Not Active	Not Active	–	Not Active	Not Active	Not Active	Not Active	Not Active	Not Active	–
CCn1cc(C(=O)O)c(=O)c2cc(F)c(N3CCNCC3)cc21 [NORFLOXACIN]	Not Active	Not Active	Not Active	Not Active	Not Active	–	Not Active	Not Active	Not Active	Not Active	Not Active	Not Active	–
CCC1(c2ccc(N)cc2)CCC(=O)NC1=O (stereo not given) [AMINOGLUTETHIMIDE]	Not Active	Not Active	Not Active	Not Active	Not Active	–	Not Active	Not Active	Not Active	Not Active	Not Active	Not Active	–
Cc1ccc(N(CC2=NCCN2)c2cccc(O)c2)cc1 [PHENTOLAMINE]	Not Active	Not Active	Not Active	Not Active	Not Active	–	Not Active	Not Active	Not Active	Not Active	Not Active	Not Active	–
CNNCc1ccc(C(=O)NC(C)C)cc1 [PROCARBAZINE]	Not Active	Not Active	Not Active	Not Active	Not Active	–	Not Active	Not Active	Not Active	Not Active	Not Active	Not Active	–
OC(Cn1cncn1)(Cn1cncn1)c1ccc(F)cc1F [FLUCONAZOLE]	Not Active	Not Active	Not Active	Not Active	Not Active	–	Not Active	Not Active	Not Active	Not Active	Not Active	Not Active	–
C[C@]12CCC(=O)C=C1CC[C@@H]1[C@@H]2CC[C@@]2(C)[C@H]1CC[C@]2(C)O [METHYLTESTOSTERONE]	Not Active	Not Active	Not Active	Not Active	Not Active	–	Not Active	Not Active	Not Active	Not Active	Not Active	Not Active	–
O=c1oc2ccccc2c(O)c1Cc1c(O)c2ccccc2oc1=O [DICUMAROL]	Not Active	Not Active	Not Active	Not Active	Not Active	–	–	Not Active	Not Active	Not Active	Not Active	Not Active	4.43
Cc1cc(C2CCCCC2)n(O)c(=O)c1 [CICLOPIROX]	Not Active	Not Active	Not Active	Not Active	Not Active	–	Not Active	Not Active	Not Active	Not Active	Not Active	Not Active	–
CCOc1ccc(NC(C)=O)cc1 [PHENACETIN]	Not Active	Not Active	Not Active	Not Active	Not Active	–	Not Active	Not Active	Not Active	Not Active	Not Active	Not Active	–
NC1=NC(=O)C(c2ccccc2)O1 (stereo not given) [PEMOLINE]	Not Active	Not Active	Not Active	Not Active	Not Active	–	Not Active	Not Active	Not Active	Not Active	Not Active	Not Active	–
